Experimental data from patent publication US20260295053A1, “COMPOUNDS FOR DEGRADATION AND INHIBITION OF KRAS (G12D) PROTEIN” (Shenzhen Ionova Life Science Co., Ltd., priority 2023, published 2026).

Tests used:
AsPC-1 cells = assay: AsPC-1 cell proliferation assay (CellTiter Glo); assay type: cell-based; conditions: Homo sapiens, ASPC1, 144 h, 6 days
Procedure, shortened: (§1)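 AsPC-1 cells were seeded at 22,000/well for degradation and 3,500/well for proliferation. Compounds in 1:3 dilutions ([…] to 1.5 nM final) ran 24 h for degradation, read by in-cell immunofluorescence of KRAS G12D normalised to β-actin, and 6 days for proliferation (CellTiter Glo luminescence). DC50/IC50 came from dose-response fits.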

KRAS (G12D) = molecular target: T1, KRAS (G12D) (Homo sapiens, UniProt P01116, G12D); assay: KRAS (G12D) cellular degradation assay in AsPC-1 cells; assay type: cell-based; conditions: 24 hours, antibody fluorescence (Odyssey CLX), DC50 half-maximal degradation concentration
T1 construct: in-cell western with KRAS G12D antibody after 24 h
T1 sequence (P01116 1-188 isoform P01116-2 G12D): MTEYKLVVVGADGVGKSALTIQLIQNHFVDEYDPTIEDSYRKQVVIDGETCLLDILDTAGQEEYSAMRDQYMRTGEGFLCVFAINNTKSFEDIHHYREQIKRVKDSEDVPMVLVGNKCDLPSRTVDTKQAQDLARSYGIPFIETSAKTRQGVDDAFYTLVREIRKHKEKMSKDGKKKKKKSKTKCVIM
Procedure, shortened: as §1

SMILES | IC50 (AsPC-1 cells) [nM] | DC50 (KRAS (G12D)) [nM]
CCn1nccc1-c1ccc([C@H](CO)NC(=O)[C@@H]2C[C@@H](O)CN2C(=O)[C@H](C(C)C)n2cc(-c3ccc(COc4c(-c5c(C)c(F)cc6[nH]ncc56)c(C5CC5)cc5c(N6C[C@@H]7C[C@H]6CN7)nc(OCC6(C(F)F)CC6)nc45)cc3)nn2)cc1 [Example 53, (2S,4R)-1-((2S)-2-(4-(4-(((4-((1S,4S)-2,5-diazabicyclo[2.2.1]heptan-2-yl)-6-cyclopropyl-2-((1-(difluoromethyl)cyclopropyl)methoxy)-7-(6-fluoro-5-methyl-1H-indazol-4-yl)quinazolin-8-yl)oxy)methyl)phenyl)-1H-1,2,3-triazol-1-yl)-3-methylbutanoyl)-N—((R)-1-(4-(1-ethyl-1H-pyrazol-5-yl)phenyl)-2-hydroxyethyl)-4-hydroxypyrrolidine-2-carboxamide] | < 10 | < 10
Cc1ncsc1C#C[C@H](CO)NC(=O)[C@@H]1C[C@@H](O)CN1C(=O)[C@H](C(C)C)n1cc(-c2ccc(COc3c(-c4c(C)c(F)cc5[nH]ncc45)c(C4CC4)cc4c(N5C[C@@H]6C[C@H]5CN6)nc(OC5CCOCC5)nc34)cc2)nn1 [Example 59, (2S,4R)-1-((2S)-2-(4-(4-(((4-((1S,4S)-2,5-diazabicyclo[2.2.1]heptan-2-yl)-6-cyclopropyl-7-(6-fluoro-5-methyl-1H-indazol-4-yl)-2-((tetrahydro-2H-pyran-4-yl)oxy)quinazolin-8-yl)oxy)methyl)phenyl)-1H-1,2,3-triazol-1-yl)-3-methylbutanoyl)-4-hydroxy-N—((R)-1-hydroxy-4-(4-methylthiazol-5-yl)but-3-yn-2-yl)pyrrolidine-2-carboxamide] | < 10 | < 10
CO[C@H]1C[C@@H](Oc2nc(N3C[C@@H]4C[C@H]3CN4)c3cc(C4CC4)c(-c4c(C)c(F)cc5[nH]ncc45)c(OCc4ccc(-c5cn([C@H](C(=O)N6C[C@H](O)C[C@H]6C(=O)N[C@H](c6ccc(-c7scnc7C)cc6)[C@H](C)O)C(C)C)nn5)cc4)c3n2)C1 [Example 135, (2S,4R)-1-((2S)-2-(4-(4-(((4-((1S,4S)-2,5-diazabicyclo[2.2.1]heptan-2-yl)-6-cyclopropyl-7-(6-fluoro-5-methyl-1H-indazol-4-yl)-2-((1s,3R)-3-methoxycyclobutoxy)quinazolin-8-yl)oxy)methyl)phenyl)-1H-1,2,3-triazol-1-yl)-3-methylbutanoyl)-4-hydroxy-N-((1R,2S)-2-hydroxy-1-(4-(4-methylthiazol-5-yl)phenyl)propyl)purrolidine-2-carboxcamide] | < 10 | < 10
CCn1nccc1-c1ccc([C@@H](NC(=O)[C@@H]2C[C@@H](O)CN2C(=O)[C@H](C(C)C)n2cc(-c3ccc(COc4c(-c5c(C)c(F)cc6[nH]ncc56)c(C5CC5)cc5c(N6C[C@@H]7C[C@H]6CN7)nc(OC[C@H](C)OC)nc45)cc3)nn2)[C@H](C)O)c2c1CC2 [Example 85, (2S,4R)-1-((2S)-2-(4-(4-(((4-((1S,4S)-2,5-diazabicyclo[2.2.1]heptan-2-yl)-6-cyclopropyl-7-(6-fluoro-5-methyl-1H-indazol-4-yl)-2-((S)-2-methoxypropoxy)quinazolin-8-yl)oxy)methyl)phenyl)-1H-1,2,3-triazol-1-yl)-3-methylbutanoyl)-N-((1R,2S)-1-(5-(1-ethyl-1H-pyrazol-5-yl)bicyclo[4.2.0]octa-1(6),2,4-trien-2-yl)-2-hydroxypropyl)-4-hydroxypyrrolidine-2-carboxamide] | < 10 | < 10
CCn1nccc1-c1ccc([C@H](CO)NC(=O)[C@@H]2C[C@@H](O)CN2C(=O)[C@H](C(C)C)n2cc(-c3ccc(COc4c(-c5c(C)c(F)cc6[nH]ncc56)c(C5CC5)cc5c(N6C[C@@H]7C[C@H]6CN7)nc(OCC6(C(F)F)CCOCC6)nc45)cc3)nn2)cc1 [Example 65, (2S,4R)-1-((2S)-2-(4-(4-(((4-((1S,4S)-2,5-diazabicyclo[2.2.1]heptan-2-yl)-6-cyclopropyl-2-((4-(difluoromethyl)tetrahydro-2H-pyran-4-yl)methoxy)-7-(6-fluoro-5-methyl-1H-indazol-4-yl)quinazolin-8-yl)oxy)methyl)phenyl)-1H-1,2,3-triazol-1-yl)-3-methylbutanoyl)-N—((R)-1-(4-(1-ethyl-1H-pyrazol-5-yl)phenyl)-2-hydroxyethyl)-4-hydroxypyrrolidine-2-carboxamide] | < 10 | < 10

Other lines, results leading:

IC50 (AsPC-1 cells) [nM] | DC50 (KRAS (G12D)) [nM] | SMILES
< 10 | < 10 | Cc1ncsc1-c1ccc([C@H](CO)NC(=O)[C@@H]2C[C@@H](O)CN2C(=O)[C@H](C(C)C)n2cc(-c3ccc(COc4c(-c5c(C)c(F)cc6[nH]ncc56)c(C5CCC5)cc5c(N6C[C@@H]7C[C@H]6CN7)nc(OC6CCOCC6)nc45)cc3)nn2)cc1 [Example 94, (2S,4R)-1-((2S)-2-(4-(4-(((4-((1S,4S)-2,5-diazabicyclo[2.2.1]heptan-2-yl)-6-cyclobutyl-7-(6-fluoro-5-methyl-1H-indazol-4-yl)-2-((tetrahydro-2H-pyran-4-yl)oxy)quinazolin-8-yl)oxy)methyl)phenyl)-1H-1,2,3-triazol-1-yl)-3-methylbutanoyl)-4-hydroxy-N—((R)-2-hydroxy-1-(4-(4-methylthiazol-5-yl)phenyl)ethyl)pyrrolidine-2-carboxamide]
< 10 | < 10 | CO[C@@H](C)COc1nc(N2C[C@@H]3C[C@H]2CN3)c2cc(C3CC3)c(-c3c(C)c(F)c(F)c4[nH]ncc34)c(OCc3ccc(-c4cn([C@H](C(=O)N5C[C@H](O)C[C@H]5C(=O)N[C@H](c5ccc(-c6scnc6C)cc5)[C@H](C)O)C(C)C)nn4)cc3)c2n1 [Example 90, (2S,4R)-1-((2S)-2-(4-(4-(((4-((1S,4S)-2,5-diazabicyclo[2.2.1]heptan-2-yl)-6-cyclopropyl-7-(6,7-difluoro-5-methyl-1H-indazol-4-yl)-2-((S)-2-methoxypropoxy)quinazolin-8-yl)oxy)methyl)phenyl)-1H-1,2,3-triazol-1-yl)-3-methylbutanoyl)-4-hydroxy-N-((1R,2S)-2-hydroxy-1-(4-(4-methylthiazol-5-yl)phenyl)propyl)pyrrolidine-2-carboxamide]
< 10 | < 10 | CCn1nccc1-c1ccc([C@H](CO)NC(=O)[C@@H]2C[C@@H](O)CN2C(=O)[C@H](C(C)C)n2cc(-c3ccc(COc4c(-c5c(C)c(F)cc6[nH]ncc56)c(C5CC5)cc5c(N6C[C@@H]7C[C@H]6CN7)nc(OC[C@H](C)OC)nc45)cc3)nn2)c2c1CC2 [Example 152, (2S,4R)-1-((2S)-2-(4-(4-(((4-((1S,4S)-2,5-diazabicyclo[2.2.1]heptan-2-yl)-6-cyclopropyl-7-(6-fluoro-5-methyl-1H-indazol-4-yl)-2-((S)-2-methoxypropoxy)quinazolin-8-yl)oxy)methyl)phenyl)-1H-1,2,3-triazol-1-yl)-3-methylbutanoyl)-N—((R)-1-(5-(1-ethyl-1H-pyrazol-5-yl)bicyclo[4.2.0]octa-1(6),2,4-trien-2-yl)-2-hydroxyethyl)-4-hydroxypyrrolidine-2-carboxamide]
< 10 | < 10 | CCn1nccc1-c1ccc([C@H](CO)NC(=O)[C@@H]2C[C@@H](O)CN2C(=O)[C@H](C(C)C)n2cc(-c3ccc(COc4c(-c5c(C)c(F)cc6[nH]nc(F)c56)c(C5CC5)cc5c(N6C[C@@H]7C[C@H]6CN7)nc(OC[C@H](C)OC)nc45)cc3)nn2)cc1 [Example 33, (2S,4R)-1-((2S)-2-(4-(4-(((4-((1S,4S)-2,5-diazabicyclo[2.2.1]heptan-2-yl)-6-cyclopropyl-7-(3,6-difluoro-5-methyl-1H-indazol-4-yl)-2-((S)-2-methoxypropoxy)quinazolin-8-yl)oxy)methyl)phenyl)-1H-1,2,3-triazol-1-yl)-3-methylbutanoyl)-N—((R)-1-(4-(1-ethyl-1H-pyrazol-5-yl)phenyl)-2-hydroxyethyl)-4-hydroxypyrrolidine-2-carboxamide]
< 10 | < 10 | CCn1nccc1-c1ccc([C@H](CC(=O)NC)NC(=O)[C@@H]2C[C@@H](O)CN2C(=O)[C@H](C(C)C)n2cc(-c3ccc(COc4c(-c5c(C)c(F)cc6[nH]ncc56)c(C5CC5)cc5c(N6C[C@@H]7C[C@H]6CN7)nc(OC[C@H](C)OC)nc45)cc3)nn2)cc1 [Example 55, (2S,4R)-1-((2S)-2-(4-(4-(((4-((1S,4S)-2,5-diazabicyclo[2.2.1]heptan-2-yl)-6-cyclopropyl-7-(6-fluoro-5-methyl-1H-indazol-4-yl)-2-((S)-2-methoxypropoxy)quinazolin-8-yl)oxy)methyl)phenyl)-1H-1,2,3-triazol-1-yl)-3-methylbutanoyl)-N—((S)-1-(4-(1-ethyl-1H-pyrazol-5-yl)phenyl)-3-(methylamino)-3-oxopropyl)-4-hydroxypyrrolidine-2-carboxamide]
< 10 | 10 to 100 | COC1CCC(Oc2nc(N3C[C@@H]4C[C@H]3CN4)c3cc(C4CC4)c(-c4c(C)c(F)c(F)c5[nH]ncc45)c(OCc4ccc(-c5cn([C@H](C(=O)N6C[C@H](O)C[C@H]6C(=O)N[C@@H](CO)c6ccc(-c7scnc7C)cc6)C(C)C)nn5)cc4)c3n2)CC1 (stereo partly drawn) [Example 103, (2S,4R)-1-((2S)-2-(4-(4-(((4-((1S,4S)-2,5-diazabicyclo[2.2.1]heptan-2-yl)-6-cyclopropyl-7-(6,7-difluoro-5-methyl-1H-indazol-4-yl)-2-(((1s,4R)-4-methoxycyclohexyl)oxy)quinazolin-8-yl)oxy)methyl)phenyl)-1H-1,2,3-triazol-1-yl)-3-methylbutanoyl)-4-hydroxy-N—((R)-2-hydroxy-1-(4-(4-methylthiazol-5-yl)phenyl)ethyl)pyrrolidine-2-carboxamide]
10 to 100 | 10 to 100 | CO[C@@H](C)COc1nc(N2CC3CCC(C2)N3)c2cc(C3CC3)c(-c3c(C)c(F)cc4[nH]ncc34)c(OCc3ccc(-c4cn([C@H](C(=O)N5C[C@H](O)C[C@H]5C(=O)N[C@@H](CO)c5ccc(-c6scnc6C)cc5)C(C)C)nn4)cc3)c2n1 (single isomer, unassigned) [Example 12A]
